Results on two molecules are retold here after US9200071B2, “Methods of treating cancer using Notch1 and Notch3 antagonists” (Genentech, Inc., priority 2009, dated 2015).

Common to all, as to assay type: cell-based, human
Experiment [1] has as its system HPB-ALL cell line. The experiment is described as follows: Cell diameter measurement (Vi-Cell cell counter). Conditions: approximately one week; DAPT 5 μM, anti-NRR1 5 μg/ml; FIG. 6. The method, then:
(§1) The P-12 Ichikawa cell line, the HPB-ALL cell line, and the TALL-1 cell line were grown for approximately one week in control conditions (DMSO alone (the vehicle for DAPT) or anti-gD (an isotype control antibody)); in the presence of the gamma-secretase inhibitor, DAPT (5 μM); or in the presence of anti-NRR1 (5 μg/ml). Cell diameter was measured using a cell counter (Vi-Cell, Beckman Coulter). Consistent with the growth inhibition studies, the P-12 Ichikawa line is resistant to both DAPT and anti-NRR1, as indicated by relatively consistent cell diameter among treated and control cells.

In experiment [2] the test system is P-12 Ichikawa cell line. As to the kind of experiment: Cell diameter measurement (Vi-Cell cell counter). As to conditions: approximately one week; DAPT 5 μM, anti-NRR1 5 μg/ml; FIG. 6. The method, then: as §1
Experiment [3] relates to TALL-1 cell line. As to the kind of experiment: Cell diameter measurement (Vi-Cell cell counter). Conditions: approximately one week; DAPT 5 μM, anti-NRR1 5 μg/ml; FIG. 6. As to the method:
as §1

For experiment [4], the system named is CCRF-CEM cells. The experiment is described as follows: Cell cycle status by propidium iodide FACS (growth sensitivity). As to conditions: eight days; DAPT 5 μM, anti-NRR1 5 μg/ml, anti-NRR3 10 μg/ml; FIG. 10A-10F. The method, then:
(§2) FIGS. 3-5 presents the classification of three representative human T-ALL cell lines. Those cell lines include the P-12 Ichikawa cell line, the HPB-ALL cell line, and the TALL-1 cell line. The cells were grown for eight days in control conditions (DMSO alone (the vehicle for DAPT) or anti-gD (an isotype control antibody)); in the presence of the gamma-secretase inhibitor, DAPT (5 μM); or in the presence of anti-NRR1 (5 μg/ml). The cells were fixed, stained with propidium iodide and prepared for FACS to analyze the cell cycle status, according to standard procedures. […] HPB-ALL cells are sensitive to both DAPT and anti-NRR1 (FIG. 4A-4D), with DAPT- and anti-NRR1-treated cells showing about 78% and 76% of cells in G0/G1, respectively, compared to about 33-34% of the control cells. TALL-1 cells are sensitive to DAPT but resistant to anti-NRR1 (FIG. 5A-5D), with about 87% of DAPT-treated cells in G0/G1, compared to about 55% of anti-NRR1-treated cells and about 53-54% of control cells. It is noted that Notch1 is not mutated in TALL-1 cells. […] (Data not shown and FIG. 10.)
(§3) As described above, two of the three classes of T-ALL, represented by HPB-ALL and TALL-1, are both sensitive to GSI but differ in that the former is sensitive to anti-NRR1, whereas the latter is not. […] To address this question, CCRF-CEM cells, HPB-ALL cells, and TALL-1 cells were treated as described for FIGS. 3-5, except that a Notch3-specific antagonist was also included at 10 μg/ml in a subset of the treatments to test whether growth depended on Notch3 signaling. The Notch3-specific antagonist used in these studies was mouse anti-human Notch3 monoclonal antibody 256A-4, the isolation and characterization of which are discussed in U.S. Patent Application Publication No. US 2008/0226621 A1. For convenience, 256A-4 is referred to herein as “anti-NRR3,” and is also referred to as “α-N3” in the figures.

Experiment [5] deals with HPB-ALL cell line. The experiment is described as above. Conditions: eight days, DAPT 5 μM, anti-NRR1 5 μg/ml. As to the method:
as §2, §3

For experiment [6], the system named is TALL-1 cell line. Described as above. Conditions: eight days, DAPT 5 μM, anti-NRR1 5 μg/ml; for percentage of cells in G0/G1: control cells about 53-54%. The method, then: as §2, §3
Experiment [7] concerns activated Notch3 in TALL-1. The experiment is described as follows: Immunoblot of nuclear fractions with anti-Notch3 ICD antibody. As to conditions: TALL-1 nuclear fractions; FIG. 13 lower panel. The text has this: (§4) This new anti-Notch3 ICD antibody was then used to investigate the activation status of Notch3 in the three classes of T-ALL. […] 3T3 cells expressing Notch1 (3T3-N1) and MDA-MB-468 (MB468) cells were used as controls. Consistent with the growth inhibition studies described in the previous figures, TALL-1 expresses high levels of activated Notch3 but not activated Notch1 (compare TALL-1 lanes in lower and upper panels, respectively). Furthermore, production of activated Notch3 in TALL-1 could be blocked by DAPT but not anti-NRR1 (lower panel). Moreover, as expected, HPB-ALL cells express high levels of activated Notch1, which can be blocked by DAPT or anti-NRR1 antibody (see HPB-ALL lanes in upper panel). As to the controls, activated Notch1 is seen as a lighter, up-shifted band in the 3T3-N1 cells treated with Jagged (+jag) (upper panel).

Experiment [8] relates to P-12 Ichikawa cell line. As to the kind of experiment: Cell cycle status by propidium iodide FACS (growth sensitivity). Conditions: eight days; DAPT 5 μM, anti-NRR1 5 μg/ml; FIG. 3A-3D. As to the method: as §2
The subject of experiment [9] is HPB-ALL cell line. As to the kind of experiment: Apoptosis by Annexin V / 7-AAD FACS. Conditions: approximately one week; DAPT 5 μM, anti-NRR1 5 μg/ml; FIG. 7. As to the method: (§5) The P-12 Ichikawa cell line, the HPB-ALL cell line, and the TALL-1 cell line were treated as described above for FIG. 6. The cells were analyzed by FACS, with staining for 7-AAD (cell death marker) on the x-axis of FIG. 7, and staining for Annexin V (marker for apoptosis) on the y-axis of FIG. 7. […] In contrast, P-12 Ichikawa cells are resistant to both treatments, whereas TALL-1 cells are sensitive to DAPT but not to anti-NRR1.

In experiment [10] the test system is P-12 Ichikawa cell line. As to the kind of experiment: Apoptosis by Annexin V / 7-AAD FACS. As to conditions: approximately one week; DAPT 5 μM, anti-NRR1 5 μg/ml; FIG. 7. As to the method:
as §5

Experiment [11] relates to TALL-1 cell line. As to the kind of experiment: Apoptosis by Annexin V / 7-AAD FACS. As to conditions: approximately one week; DAPT 5 μM, anti-NRR1 5 μg/ml; FIG. 7. As to the method: as §5
Experiment [12] deals with activated Notch1 in HPB-ALL cells. The experiment is described as follows: Immunoblot of nuclear fractions with anti-Notch1 Val1744. Conditions: FIG. 13 upper panel.
Description: as §4
On the technique in general: In western blotting, separated proteins are transferred to a membrane and probed.

The subject of experiment [13] is HPB-ALL cell line. The experiment is described as follows: Cell proliferation assay by Ki-67 staining FACS. Conditions: approximately one week; DAPT 5 μM, anti-NRR1 5 μg/ml; FIG. 8 left panel. As to the method:
(§6) The P-12 Ichikawa cell line, the HPB-ALL cell line, and the TALL-1 cell line were treated as described above for FIG. 6. The cells were analyzed by FACS using Ki-67 staining to mark proliferation (left panel). A shift in the FACS peak to the left indicates lower staining for Ki-67 and decreased proliferation, and conversely, a shift in the FACS peak to the right indicates higher staining for Ki-67 and increased proliferation. Based on this proliferation assay, HPB-ALL was sensitive to both DAPT and anti-NRR1, TALL-1 was sensitive to DAPT but not anti-NRR1, and P-12 Ichikawa cells were resistant to both. […] Low cell counts (i.e., low numbers of Annexin V/7-AAD double negative (non-apoptotic) cells) indicate increased apoptosis, which in turn correlate with decreased proliferation in the left hand panel.

The test system of experiment [14] is P-12 Ichikawa cell line. The experiment is described as follows: Cell proliferation assay by Ki-67 staining FACS. Conditions: approximately one week; DAPT 5 μM, anti-NRR1 5 μg/ml; FIG. 8 left panel. As to the method:
as §6

Experiment [15] concerns TALL-1 cell line. As to the kind of experiment: Cell proliferation assay by Ki-67 staining FACS. Conditions: approximately one week; DAPT 5 μM, anti-NRR1 5 μg/ml; FIG. 8 left panel. The method, then:
as §6

Experiment [16] concerns activated Notch3 in MDA-MB-468 cells. As to the kind of experiment: Immunoblot of MDA-MB-468 cells treated with anti-Notch3 agonist antibody. As to conditions: in the absence of DAPT, FIG. 13 lower panel.
Description: as §4

Setting [17] is: anti-NRR3 10 μg/ml, FIG. 11A-11F.

For the molecule `C[C@H](NC(=O)Cc1cc(F)cc(F)c1)C(=O)N[C@H](C(=O)OC(C)(C)C)c1ccccc1` [DAPT, N—[N-(3,5-difluorophenacetyl)-L-alanyl]-S-phenylglycine t-butyl ester], the “cell diameter (cell size) versus control” value in [1] was “significantly smaller size”; in [2], “resistant”; in experiment [3], “significantly smaller size”. Besides, the “growth sensitivity (cell cycle status)” value is on record as “resistant” in experiment [4]; “sensitive” in experiment [5] (setting [17]); “sensitive” in [5] (FIG. 4A-4D); “sensitive” in experiment [6] (FIG. 5A-5D); “resistant” in experiment [8]. Further, the “percentage of cells in G0/G1” value in [5] (setting [17]) is “about 67%”; in [5] (FIG. 4A-4D, control cells about 33-34%), “about 78%”; in [6] (anti-NRR3 10 μg/ml, FIG. 9A-9F), about 83%; in experiment [6] (FIG. 5A-5D) it was “about 87%”. Further, the “production of activated Notch3 (nuclear fraction immunoblot)” value in [7] was “blocked”. For the same molecule, the figures for the “apoptotic cell death (Annexin V/7-AAD double positive population)” value in [9], in [10] and in experiment [11] were “increases apoptotic cell death”, “resistant” and “sensitive”, respectively. For the same molecule, in experiment [12], the “activated Notch1 levels (nuclear fraction immunoblot)” value was “blocked”. Further, the “proliferation (Ki-67 staining)” value in experiment [13] is “sensitive”; in experiment [14], “resistant”; in experiment [15] it was “sensitive”.

B1: A13: anti-Notch3 agonist antibody described in US 2008/0118520 A1 as 256A-13 (antibody, V domains shown)
VH: SQVQLQQSGAELAKPGTSVKMACKASGYTFTTHWMNWVKQRPGQGLEWIGTINPSNDFTDCNQKFKDKAILTADKSSSTAYMQLSSLTSEDSAIYYCASGLTARAWFAYWGQGTLVTVSAA
VL: RATISCRASQSVTTSNYSYMHWFQQKPGQPPKLLIKYASNLDSGVPARFSGSGSGTDFTLNIHPVEEEDTATFYCQHSWEIPYTFGGGTNLEIKRADAAPTV
In the case of B1, the “activated Notch3 band after agonist antibody treatment” value in experiment [16] is recorded as “faint but detectable band”.
